The record followed here is US7345056B2, “Bridged N-cyclic sulfonamido inhibitors of gamma secretase” (Elan Pharmaceuticals, Inc., priority 2005, dated 2008).

As a reminder, the IC50 is the midpoint of a concentration-inhibition curve.

This experiment has as its target T1, gamma-secretase (partially purified extract of IMR-32 cell membranes) (Homo sapiens, UniProt P49768).
T1 construct: a partially purified extract of IMR-32 cell membranes as the gamma-secretase enzyme preparation; endogenous in cells; host or cells: IMR-32 cell membranes, partially purified extract
The experiment is described as follows: Gamma-secretase APP enzyme assay (cleavage of MBP-C125 Swe at the Aβ40 site, sandwich ELISA). It is filed as biochemical. Conditions: MBP-C125swe substrate, IMR-32 membrane extract, 2 h at 37° C., Aβ40 site cleavage product by ELISA; read-out: γAPP (inhibition, IC50). The text has this:
The gamma-secretase APP enzyme assay was designed to measure the specific proteolytic cleavage of an APP substrate (MBP-C125 Swe fusion protein) at the Aβ40 site. […] This assay involved two steps beginning with the enzymatic reaction generating a cleavage product that was captured with an immobilized antibody specific for the neo-epitope Aβ40 site. The captured cleavage product was then detected in a sandwich ELISA assay with a biotinylated reporter antibody that is specific to Aβ (17-28). Streptavidin-linked alkaline phosphatase was then added that would generate a fluorescent signal proportional to the amount of cleavage product.
This warmed solution of BigCHAPS(N,N-Bis(3-D-gluconamidopropyl)cholamide) detergent was used to dissolve Brain Extract Type-V (lipid containing a minimum of 40% phosphatidylethanolamine) from Sigma (St. Louis, Mo.) to a concentration of 8 mg/ml. This solution containing BigCHAPS and lipid at 8 mg/ml is then diluted to 0.53 mg/ml lipid with a pre-warmed solution of Hepes and sodium chloride. This final solution containing Hepes buffer, sodium chloride, BigCHAPS detergent and lipid is used to create working solutions of both gamma-secretase (25 Units) and the MBP-C125 substrate (0.05 mg/ml).
Gamma-secretase was then added to a 96-well micro-titre plate and then incubated with various concentrations of inhibitor for 30 minutes at 37° C. MBPC125 substrate was then added to initiate the reaction that would run for two hours at 37° C. The reaction was quenched with the addition of SDS to a final concentration of 0.1% and then 100 μl of the reaction mixture was transferred to a capture ELISA plate and incubated overnight at 4° C. Detection of the cleavage product was performed using a standard sandwich ELISA assay and quantified using a six point standard curve.
On to `O=S(=O)(c1ccc(Cl)cc1)N1C2CCCC1c1c(C(F)F)n[nH]c1C2` (stereo not shown) [12-(4-Chloro-benzenesulfonyl)-3-difluoromethyl-4,5,12-triaza-tricyclo[6.3.1.0^2,6]dodeca-2(6),3-diene], for which the IC50 was less than 100 nM. With `Cc1n[nH]c2c1C1CCCC(C2)N1S(=O)(=O)c1ccc(Cl)cc1` (stereo not shown) [12-(4-Chloro-benzenesulfonyl)-3-methyl-4,5,12-triaza-tricyclo[6.3.1.0^2,6]dodeca-2(6),3-diene], the IC50 was less than 100 nM. With `O=S(=O)(c1ccc(Cl)s1)N1C2CCCC1c1cn[nH]c1C2` (stereo not shown) [Example 8, 12-(5-Chloro-thiophene-2-sulfonyl)-4,5,12-triaza-tricyclo[6.3.1.0^2,6]dodeca-2(6),3-diene], the IC50 was less than 100 nM.

For `CC1c2[nH]ncc2C2CCCC1N2S(=O)(=O)c1ccc(Cl)cc1` (stereo not shown) [Example 11, 12-(4-Chloro-benzenesulfonyl)-7-methyl-4,5,12-triaza-tricyclo[6.3.1.0^2,6]dodeca-2(6),3-diene], the 50% inhibitory concentration (IC50) is less than 100 nM. As to `CCC1c2[nH]ncc2C2CCCC1N2S(=O)(=O)c1ccc(Cl)cc1` (stereo not shown) [Example 14, 12-(4-Chloro-benzenesulfonyl)-7-ethyl-4,5,12-triaza-tricyclo[6.3.1.0^2,6]dodeca-2(6),3-diene], the half-inhibitory concentration (IC50) is less than 100 nM. Take `O=S(=O)(c1ccc(Cl)cc1)N1C2CCCC1C(O)c1[nH]ncc12` (stereo not shown) [Example 36, 12-(4-Chloro-benzenesulfonyl)-4,5,12-triaza-tricyclo[6.3.1.0^2,6]dodeca-2(6),3-dien-7-ol]: the IC50 is less than 100 nM. `Cn1ncc2c1CC1CCCC2N1S(=O)(=O)c1ccc(Cl)cc1` (stereo not shown) [Example 53, 12-(4-Chloro-benzenesulfonyl)-5-methyl-4,5,12-triaza-tricyclo[6.3.1.0^2,6]dodeca-2(6),3-diene]: the IC50 lay in the range of 250 to 500 nM. The same measure for `O=S(=O)(c1ccc(Cl)cc1)N1C2CCCC1c1cnc3c(-c4ccccc4)cnn3c1C2` (stereo not shown) [Example 62, 16-(4-Chloro-benzenesulfonyl)-6-phenyl-4,8,9,16-tetraaza-tetracyclo-[10,3,1,0^2,10,0^5,9]-hexadeca-2(10),3,5,7-tetraene]: 100 to 250 nM; for `O=S(=O)(c1ccc(Cl)cc1)N1C2CCCC1c1cnc3cc(-c4ccccc4)nn3c1C2` (stereo not shown) [Example 63, 16-(4-Chloro-benzenesulfonyl)-7-phenyl-4,8,9,16-tetraaza-tetracyclo-[10,3,1,0^2,10,0^5,9]-hexadeca-2(10),3,5,7-tetraene]: 250 to 500 nM; for `O=S(=O)(c1ccc(Cl)cc1)N1C2CCCC1c1cnn(C3CCCCC3)c1C2` (stereo not shown) [Example 66, 12-(4-Chloro-benzenesulfonyl)-5-cyclohexyl-4,5,12-triaza-tricyclo[6.3.1.0^2,6]dodeca-2(6),3-diene]: 250 to 500 nM. For `O=S(=O)(c1ccc(Cl)cc1)N1C2CCC1c1cn[nH]c1C2` (stereo not shown) [Example 79, 11-(4-Chloro-benzenesulfonyl)-4,5,11-triaza-tricyclo[6.3.1.0^2,6]undeca-2(6),3-diene] the value was less than 100 nM; for `O=S(=O)(c1ccc(Cl)cc1)N1C2CCCC1c1c(C(F)(F)F)n[nH]c1C2` (stereo not shown) [Example 82, 12-(4-Chloro-benzenesulfonyl)-3-trifluoromethyl-4,5,12-triaza-tricyclo-[6.3.1.0^2,6]dodeca-2(6),3-diene], less than 100 nM; for `CC(=O)n1cc2c(n1)CC1CCCC2N1S(=O)(=O)c1ccc(Cl)cc1` (stereo not shown) [Example 83, 1-[12-(4-Chloro-benzenesulfonyl)-4,5,12-triaza-tricyclo[6.3.1.0^2,6]dodeca-2,5-dien-4-yl]-ethanone], less than 100 nM. Regarding `CC(C)C(=O)n1cc2c(n1)CC1CCCC2N1S(=O)(=O)c1ccc(Cl)cc1` (stereo not shown) [Example 84, 1-[12-(4-Chloro-benzenesulfonyl)-4,5,12-triaza-tricyclo[6.3.1.0^2,6]dodeca-2,5-dien-4-yl]-2-methyl-propan-1-one], the IC50 is less than 100 nM. The same measure for `CC(=O)OC(C)(C)C(=O)n1cc2c(n1)CC1CCCC2N1S(=O)(=O)c1ccc(Cl)cc1` (stereo not shown) [Example 85, Acetic acid 2-[12-(4-chloro-benzenesulfonyl)-4,5,12-triaza-tricyclo[6.3.1.0^2,6]dodeca-2,5-dien-4-yl]-1,1-dimethyl-2-oxo-ethyl ester]: less than 100 nM; for `C=CCOC(=O)n1cc2c(n1)CC1CCCC2N1S(=O)(=O)c1ccc(Cl)cc1` (stereo not shown) [Example 86, 12-(4-Chloro-benzenesulfonyl)-4,5,12-triaza-tricyclo[6.3.1.0^2,6]dodeca-2,5-diene-4-carboxylic acid allyl ester]: 250 to 500 nM. With `Nc1ncc2c(n1)CC1CCCC2N1S(=O)(=O)c1ccc(Cl)cc1` (stereo not shown) [Example 87, 13-(4-Chloro-benzenesulfonyl)-4,6,13-triaza-tricyclo[7.3.1.0^2,7]trideca-2(7),3,5-trien-5-ylamine], the IC50 lay within 100 to 250 nM. For `O=S(=O)(c1ccc(Cl)cc1)N1C2CCCC1c1c(C(F)(F)F)n[nH]c1C2` (stereo not shown) [Example 89, 12-(4-Chloro-benzenesulfonyl)-3-trifluoromethyl-4,5,12-triaza-tricyclo-[6.3.1.0^2,6]dodeca-2(6),3-diene], the half-inhibitory concentration (IC50) is 100 to 250 nM. With `O=S(=O)(c1ccc(Cl)cc1)N1C2CCCC1c1c(Cl)n[nH]c1C2` (stereo not shown) [Example 91, 3-Chloro-12-(4-chloro-benzenesulfonyl)-4,5,12-triaza-tricyclo[6.3.1.0^2,6]dodeca-2(6),3-diene], the IC50 is 250 to 500 nM. In the case of `Nc1n[nH]c2c1C1CCCC(C2)N1S(=O)(=O)c1ccc(Cl)cc1` (stereo not shown) [Example 94, 12-(4-Chloro-benzenesulfonyl)-4,5,12-triaza-tricyclo[6.3.1.0^2,6]dodeca-2(6),3-dien-3-ylamine], the IC50 was less than 100 nM. The same measure for `Nc1n[nH]c2c1C1CCCC(C2)N1S(=O)(=O)c1ccc(Cl)cc1` (stereo not shown) [Example 97, 12-(4-Chloro-benzenesulfonyl)-4,5,12-triaza-tricyclo[6.3.1.0^2,6]dodeca-2(6),3-dien-3-ylamine]: less than 100 nM. As for “N-[12-(4-Chloro-benzenesulfonyl)-4,5,12-triaza-tricyclo[6.3.1.0^2,6]dodeca-2(6),3-dien-7-yl]-acetamide [Example 98]”, the half-inhibitory concentration (IC50) is less than 100 nM.
